The record followed here is ChEMBL document CHEMBL3396945, “Modified calanolides incorporated with furan-2-nitro mimics against Mycobacterium tuberculosis” (2015).

Test [1] has as its system Mycobacterium tuberculosis. The experiment in a line: microbe, parasite or virus in culture. It counts as functional.
The test system of test [2] is Mycobacterium tuberculosis. The experiment in a line: microbe, parasite or virus in culture. It counts as functional. The source holds these as a separate data set.

Molecules are shown by their SMILES. Converted amounts (≈) assume the structure as drawn.

Consider `CCCc1cc(=O)oc2c1c1c(c3oc(C(=O)OCC)cc32)C=CC(C)(C)O1`, for which the MIC in test [1] and in test [2] was greater than 50 µg/mL each time.
As to `CCCc1cc(=O)oc2c1c1c(c3oc(C(=O)O)cc32)C=CC(C)(C)O1`, the MIC in test [1] and in test [2] was greater than 50 µg/mL throughout.
Consider `CCCc1cc(=O)oc2c1c1c(c3oc(C(=O)NN)cc32)C=CC(C)(C)O1`, for which the figures for the MIC in test [1] and in test [2] were 50 µg/mL (≈ 136 µM) and greater than 50 µg/mL, respectively.
With `CCCc1cc(=O)oc2c1c1c(c3oc(C(=O)NNC(=O)c4ccncc4)cc32)C=CC(C)(C)O1`, the MIC in test [1] is 25 µg/mL (≈ 52.8 µM); in test [2], greater than 50 µg/mL.
On to `CCCc1cc(=O)oc2c1c(OCCN1CCOCC1)cc1oc(C(=O)OCC)cc12`, for which the MIC in test [1] and in test [2] was greater than 50 µg/mL throughout.
Take `CCCc1cc(=O)oc2c1c(OCCN1CCOCC1)cc1oc(C(=O)O)cc12`: the MIC in test [1] and in test [2] was greater than 50 µg/mL each time.
On to `CCCc1cc(=O)oc2c1c(OCCN1CCOCC1)cc1oc(C(=O)NN)cc12`, for which the MIC in test [1] and in test [2] was greater than 50 µg/mL throughout.
Consider `CCCc1cc(=O)oc2c1c1c(c3oc(NC(=O)OCC)cc32)C=CC(C)(C)O1`, for which the MIC in test [1] and in test [2] was greater than 50 µg/mL in each case.
Take `CCCc1cc(=O)oc2c1c1c(c3oc(C#N)cc32)C=CC(C)(C)O1`: the MIC in test [1] and in test [2] was greater than 50 µg/mL in each case.
For the compound `CCCc1cc(=O)oc2c1c1c(c3oc(C(=O)N=[N+]=[N-])cc32)C=CC(C)(C)O1`, the MIC in test [1] and in test [2] was greater than 50 µg/mL each time.
On to `CCCc1cc(=O)oc2c1c(OCCN1CCOCC1)cc1oc(C#N)cc12`, for which the MIC in test [1] and in test [2] was greater than 50 µg/mL each time.
Consider `CCCc1cc(=O)oc2c1c(OCCN1CCOCC1)cc1oc(/C(N)=N\O)cc12`, for which the MIC in test [1] and in test [2] was greater than 50 µg/mL in each case.
For the compound `CCCc1cc(=O)oc2c1c(OCCN1CCOCC1)cc1oc(C(=N)N)cc12`, the MIC in test [1] and in test [2] was greater than 50 µg/mL throughout.
Consider `CCCc1cc(=O)oc2c1c(OCCN1CCOCC1)cc1oc(-c3noc(=O)[nH]3)cc12`, for which the MIC in test [1] and in test [2] was greater than 50 µg/mL in each case.
With `CCCc1cc(=O)oc2c1c(OCCN1CCOCC1)cc1oc(-c3noc(C)n3)cc12`, the MIC in test [1] and in test [2] was greater than 50 µg/mL throughout.
Regarding `CCCc1cc(=O)oc2c1c(OCCN1CCOCC1)cc1oc(-c3noc(C(F)(F)F)n3)cc12`, the MIC in test [1] and in test [2] was greater than 50 µg/mL throughout.
